Measured values: ChEMBL document CHEMBL1275499, “Glycogen synthase kinase 3 is a potential drug target for African trypanosomiasis therapy” (Antimicrob Agents Chemother, 2008)

What was measured:
[1] = Inhibition of Trypanosoma brucei recombinant MBP-fused GSK-3 short isoform expressed in Escherichia coli by scintillation proximity assay
[2] = test system: Trypanosoma brucei; assay: microbe, parasite or virus in culture; type: functional, organism-based; conditions: Trypanosoma brucei, 427, 48 h
Description: Antitrypanosomal activity against blood stream form of Trypanosoma brucei 427 assessed as growth inhibition after 48 hrs by alamar blue assay

Row | SMILES | IC50 [1] [nM] | EC50 [2] [nM]
1 | O=C1Nc2ccc3ncsc3c2/C1=C/Nc1ccc(S(=O)(=O)Nc2ccccn2)cc1 | 1 | 119
2 | Nc1nc(Nc2cccc(S(N)(=O)=O)c2)nn1C(=S)Nc1c(F)cccc1F | 13 | 20
3 | CN(C)CCCC(=O)Nc1nccc(/C(C#N)=C2\NC(C(C)(C)C)=CS2)n1 | 4 | 50
4 | CN1CCC(C(=O)Nc2nccc(/C(C#N)=C3\NC(C(C)(C)C)=CS3)n2)CC1 | 30 | 65
5 | CC(C)(C)C1=CS/C(=C(\C#N)c2ccnc(NC(=O)C3CCNCC3)n2)N1 | 46 | 200
6 | CC(=O)N1CCC(C(=O)Nc2nccc(/C(C#N)=C3\NC(C(C)(C)C)=CS3)n2)CC1 | 22 | 410
7 | CN(C)CC(=O)N1CCC(C(=O)Nc2nccc(/C(C#N)=C3\NC(C(C)(C)C)=CS3)n2)CC1 | 30 | 458
8 | CC(C)(C)C1=CS/C(=C(\C#N)c2ccnc(NCCCCN3C(=O)CCC3=O)n2)N1 | 168 | 705
9 | O=C1NC(=O)C(c2ccccc2[N+](=O)[O-])=C1Nc1ccc(O)c(Cl)c1 | 1000 | 740
10 | N#CCCc1ccc2c(c1)-c1[nH]c3ccc([N+](=O)[O-])cc3c1CC(=O)N2 [ALSTERPAULLONE 2] | 336 | 150
11 | COc1ccc2c(c1)/C(=C/c1cnc[nH]1)C(=O)N2 [SU-9516] | 352 | 180
